Assay results taken from article PMC7242238 (Clinical Drug Investigation, 2020).
Where two headings read alike, the source gives them in different places.

Columns and labels:
[1] = assay type: in vivo, human
[2] = assay type: in vivo, human; conditions: for CL/F / AUC(0-inf) / AUC(0-t) / half-life / k el: Cohort 1: naldemedine 0.2 mg alone or with itraconazole 200 mg, n = 14; for AUC(0-inf): AUC0–inf; for AUC(0-t): AUC0–last; for half-life: t1/2,z; for k el: λz
[3] = assay type: in vivo, human; conditions: for CL/F / AUC(0-inf) / AUC(0-t) / half-life / k el: Cohort 2: naldemedine 0.2 mg alone or with fluconazole 200 mg, n = 14; for AUC(0-inf): AUC0–inf; for AUC(0-t): AUC0–last; for half-life: t1/2,z; for k el: λz
[4] = CYP3A inducer study: pharmacokinetics of naldemedine alone or with rifampin; assay type: in vivo, human; conditions: for AUC(0-inf): AUC0–inf; for AUC(0-t): AUC0–last; for half-life: t1/2,z; for k el: λz
healthy subjects [5] = experiment: P-gp inhibitor study: safety assessments; assay type: in vivo, human; conditions: of 13 subjects
healthy subjects [6] = experiment: CYP3A inhibitors study Cohort 1: safety assessments; assay type: in vivo, human; conditions: of 14 subjects, by treatment period
healthy subjects [7] = experiment: CYP3A inhibitors study Cohort 2: safety assessments; assay type: in vivo, human; conditions: of 14 subjects, by treatment period
healthy subjects [8] = conditions: cited from earlier work
[9] = test system: spontaneous bowel movements; conditions: cited from earlier work
healthy subjects [10] = experiment: CYP3A inducer study: safety assessments; conditions: of 14 subjects; by treatment period
[11] = 12 healthy male subjects; single oral 2-mg doses of 14C-naldemedine; cited from earlier work
[12] = coadministration of cyclosporine 600 mg vs naldemedine 0.4 mg alone
[13] = male, human, plasma, oral, 0.4 mg
[14] = male, human, plasma, po, 0.4 mg
[15] = coadministration of itraconazole vs naldemedine 0.2 mg alone
[16] = human, plasma, oral, 0.2 mg, geometric mean (CV %)
[17] = human, plasma, oral, 0.2 mg, mean (SD)
[18] = coadministration of fluconazole vs naldemedine 0.2 mg alone
[19] = coadministration of rifampin 600 mg QD vs naldemedine 0.2 mg alone
[20] = human, plasma, oral, 0.2 mg, naldemedine 0.2 mg alone or with rifampin 600 mg QD, n = 14, geometric mean (CV %)
[21] = human, plasma, oral, 0.2 mg, naldemedine 0.2 mg alone or with rifampin 600 mg QD, n = 14, mean (SD)

Q: Which results are given for `CC(C)(NC(=O)C1=C(O)[C@@H]2Oc3c(O)ccc4c3[C@@]23CCN(CC2CC2)[C@H](C4)[C@]3(O)C1)c1nc(-c2ccccc2)no1` [Naldemedine]?
A: effect of coadministration on median naldemedine Tmax ([1]; coadministration of cyclosporine): not notably affected; increase of naldemedine AUC0–inf [1, 12]: 1.78 fold; increase of naldemedine AUC0–last [1, 12]: 1.79 fold; increase of naldemedine Cmax [1, 12]: 1.45 fold; AUC(0-inf) [1, 13]: 38.9 ng·h/mL; AUC(0-t) [1, 13]: 38.6 ng·h/mL; Cmax [1, 13]: 4.86 ng/mL; half-life [1, 13]: 10.6 h; k el [1, 13]: 1.81e-05 s⁻¹; AUC(0-inf) [1, 14]: 39.5 ng·h/mL; AUC(0-t) [1, 14]: 39.1 ng·h/mL; Cmax [1, 14]: 4.9 ng/mL; Tmax [1, 14]: 0.75 h; half-life [1, 14]: 10.7 h; k el [1, 14]: 1.82e-05 s⁻¹; CL/F ([1]; naldemedine 0.4 mg alone or with cyclosporine 600 mg, n = 13, geometric mean (CV %)): 10.3 (17.3) L/h; CL/F ([2]; geometric mean (CV %)): 7.41 (37.7) L/h; CL/F ([2]; mean (SD)): 8.03 (4.39) L/h; effect of coadministration on median naldemedine Tmax ([2]; coadministration of itraconazole): not notably affected; increase of naldemedine AUC0–inf [2, 15]: 2.91 fold; increase of naldemedine AUC0–last [2, 15]: 2.65 fold; increase of naldemedine Cmax [2, 15]: 1.12 fold; Cmax ([2]; human, plasma, oral, 0.2 mg): 3.56 ng/mL; Tmax ([2]; human, plasma, oral, 0.2 mg): 0.75 h; AUC(0-inf) [2, 16]: 27 ng·h/mL; AUC(0-inf) [2, 17]: 28.3 ng·h/mL; AUC(0-t) [2, 16]: 26.7 ng·h/mL; AUC(0-t) [2, 17]: 28.1 ng·h/mL; half-life [2, 16]: 10.4 h; half-life [2, 17]: 10.7 h; k el [2, 16]: 1.85e-05 s⁻¹; k el [2, 17]: 1.9e-05 s⁻¹; Cmax ([2]; human, plasma, po, 0.2 mg): 3.77 ng/mL; CL/F ([3]; geometric mean (CV %)): 7.36 (16.5) L/h; CL/F ([3]; mean (SD)): 7.45 (1.16) L/h; effect of coadministration on median naldemedine Tmax ([3]; coadministration of fluconazole): not notably affected; increase of naldemedine AUC0–inf [3, 18]: 1.90 fold; increase of naldemedine AUC0–last [3, 18]: 1.88 fold; increase of naldemedine Cmax [3, 18]: 1.38 fold; Cmax ([3]; human, plasma, oral, 0.2 mg): 3.48 ng/mL; Tmax ([3]; human, plasma, oral, 0.2 mg): 1 h; AUC(0-inf) [3, 16]: 27.2 ng·h/mL; AUC(0-inf) [3, 17]: 27.5 ng·h/mL; AUC(0-t) [3, 16]: 26.9 ng·h/mL; AUC(0-t) [3, 17]: 27.3 ng·h/mL; half-life [3, 16]: 10.1 h; half-life [3, 17]: 10.4 h; k el [3, 16]: 1.9e-05 s⁻¹; k el [3, 17]: 1.95e-05 s⁻¹; Cmax ([3]; human, plasma, po, 0.2 mg): 3.57 ng/mL; effect of coadministration on median naldemedine Tmax ([4]; coadministration of rifampin): not notably affected; decrease of naldemedine AUC0–last [4, 19]: 83%; decrease of naldemedine Cmax [4, 19]: 38%; Cmax ([4]; human, plasma, oral, 0.2 mg): 2.72 ng/mL; Tmax ([4]; human, plasma, oral, 0.2 mg): 1 h; AUC(0-inf) [4, 20]: 21.8 ng·h/mL; AUC(0-inf) [4, 21]: 22.1 ng·h/mL; AUC(0-t) [4, 20]: 21.5 ng·h/mL; AUC(0-t) [4, 21]: 21.8 ng·h/mL; half-life [4, 20]: 11.7 h; half-life [4, 21]: 11.9 h; k el [4, 20]: 1.64e-05 s⁻¹; k el [4, 21]: 1.67e-05 s⁻¹; Cmax ([4]; human, plasma, po, 0.2 mg): 2.8 ng/mL; CL/F ([4]; naldemedine 0.2 mg alone or with rifampin 600 mg QD, n = 14, geometric mean (CV %)): 9.19 (19.2) L/h; CL/F ([4]; naldemedine 0.2 mg alone or with rifampin 600 mg QD, n = 14, mean (SD)): 9.35 (1.86) L/h; Tmax ([4]; naldemedine 0.2 mg alone or with rifampin 600 mg QD, n = 14, median (range)): 1.00 (0.50, 2.50) h; subjects with TEAEs (healthy subjects [5]; naldemedine 0.4 mg alone or plus cyclosporine 600 mg): 7.7%; subjects with headache (TEAE) (healthy subjects [5]): 7.7%; subjects with TEAEs (healthy subjects [6]): 7.1%; subjects with TEAEs (healthy subjects [7]): 7.1%; dose linearity of pharmacokinetics (healthy subjects [8]; dose range of 0.2–0.4 mg): linear pharmacokinetics; safety and tolerability (healthy subjects [8]; naldemedine doses of 0.1 to 100 mg, healthy subjects): safe and well tolerated; clinical benefit compared with placebo ([9]; naldemedine 0.1 mg): no significant differences; clinical benefit (spontaneous bowel movements) compared with placebo ([9]; naldemedine 0.2- and 0.4-mg doses): significant clinical benefits; subjects with TEAEs (healthy subjects [10]): no TEAEs

Q: With `CCC(C)n1ncn(-c2ccc(N3CCN(c4ccc(OCC5COC(Cn6cncn6)(c6ccc(Cl)cc6Cl)O5)cc4)CC3)cc2)c1=O` (stereo not drawn) [itraconazole, reference compound] as the compound, how does the “subjects with TEAEs” value (healthy subjects [6]) read?
A: 14.3%

Q: With `CC(C)(NC(=O)C1=C(O)[C@@H]2Oc3c(O)ccc4c3[C@@]23CCN[C@H](C4)[C@]3(O)C1)c1nc(-c2ccccc2)no1` [nor-naldemedine] as the compound, how does the “share of the systemic exposure of unchanged naldemedine” value [11] read?
A: 9–13%
